For the experiment, the target named is T1, human TLR8 (Homo sapiens, UniProt Q9NR97).
T1 sequence (Q9NR97 27-1041): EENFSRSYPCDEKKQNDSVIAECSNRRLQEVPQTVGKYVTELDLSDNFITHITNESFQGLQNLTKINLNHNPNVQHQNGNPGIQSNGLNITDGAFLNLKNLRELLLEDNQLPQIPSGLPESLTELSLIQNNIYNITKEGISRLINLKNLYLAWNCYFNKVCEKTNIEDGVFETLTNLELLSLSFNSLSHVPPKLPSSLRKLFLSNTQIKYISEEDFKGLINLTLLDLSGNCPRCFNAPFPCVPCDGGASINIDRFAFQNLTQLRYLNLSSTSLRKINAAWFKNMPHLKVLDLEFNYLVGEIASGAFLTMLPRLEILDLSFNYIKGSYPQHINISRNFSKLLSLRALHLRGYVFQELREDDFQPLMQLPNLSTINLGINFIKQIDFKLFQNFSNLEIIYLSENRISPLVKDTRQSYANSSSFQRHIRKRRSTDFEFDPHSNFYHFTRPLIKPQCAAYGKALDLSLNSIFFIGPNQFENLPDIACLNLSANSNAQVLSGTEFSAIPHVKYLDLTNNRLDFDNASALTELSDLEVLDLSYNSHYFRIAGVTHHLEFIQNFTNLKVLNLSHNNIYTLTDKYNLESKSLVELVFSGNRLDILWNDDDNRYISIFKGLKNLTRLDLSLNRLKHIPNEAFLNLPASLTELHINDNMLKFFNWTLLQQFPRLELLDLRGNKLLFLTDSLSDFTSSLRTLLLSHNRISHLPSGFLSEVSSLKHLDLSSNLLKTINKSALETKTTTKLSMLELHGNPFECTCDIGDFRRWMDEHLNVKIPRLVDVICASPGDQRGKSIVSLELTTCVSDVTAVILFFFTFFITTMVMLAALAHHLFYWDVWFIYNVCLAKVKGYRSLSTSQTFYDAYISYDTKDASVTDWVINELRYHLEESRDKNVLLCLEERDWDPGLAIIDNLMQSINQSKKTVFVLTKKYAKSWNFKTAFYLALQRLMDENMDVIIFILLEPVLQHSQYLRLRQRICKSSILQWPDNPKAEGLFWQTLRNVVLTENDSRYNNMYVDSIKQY
As to the kind of experiment: HEK293-Blue-hTLR-8 cells assay. Type of experiment: cell-based. The settings on record: HEK293-Blue-hTLR8 cells, SEAP reporter, R848 stimulation, 20 hrs. The source says:
HEK293-Blue-hTLR-8 Cells Assay:
A stable HEK293-Blue-hTLR-8 cell line was purchased from InvivoGen (Cat. #: hkb-htlr8, San Diego, Calif., USA). These cells were originally designed for studying the stimulation of human TLR8 by monitoring the activation of NF-κB. A SEAP (secreted embryonic alkaline phosphatase) reporter gene was placed under the control of the IFN-β minimal promoter fused to five NF-κB and AP-1-binding sites. The SEAP was induced by activating NF-κB and AP-1 via stimulating HEK-Blue hTLR8 cells with TLR8 ligands. Therefore the reporter expression was declined by TLR8 antagonist under the stimulation of a ligand, such as R848, for incubation of 20 hrs. The cell culture supernatant SEAP reporter activity was determined using QUANTI-Blue™ kit (Cat. #: rep-qb1, Invivogen, San Diego, Ca, USA) at a wavelength of 640 nm, a detection medium that turns purple or blue in the presence of alkaline phosphatase.
HEK293-Blue-hTLR8 cells were incubated at a density of 250,000-450,000 cells/mL in a volume of 170 μL in a 96-well plate in Dulbecco's Modified Eagle's medium (DMEM) containing 4.5 g/L glucose, 50 U/mL penicillin, […], […], 2 mM L-glutamine, 10% (v/v) heat-inactivated fetal bovine serum with addition of 20 μL test compound in a serial dilution in the presence of final DMSO at 1% and 10 sL of 60 uM R848 in above DMEM, perform incubation under 37° C. in a CO2 incubator for 20 hrs. Then 20 μL of the supernatant from each well was incubated with 180 sL Quanti-blue substrate solution at 37° C. for 2 hrs and the absorbance was read at 620˜655 nm using a spectrophotometer. The signalling pathway that TLR8 activation leads to downstream NF-κB activation has been widely accepted, and therefore similar reporter assay was modified for evaluating TLR8 antagonist.
Usually IC50 stands for the midpoint of a concentration-inhibition curve. Low readings indicate greater potency, high ones weaker potency. Turning to `N#Cc1ccc(N2CC(C(=O)NC3CCCNCC3)C(C(F)(F)F)C2)c2cccnc12` (single isomer, unassigned) [Example 30B, N-(azepan-4-yl)-1-(8-cyano-5-quinolyl)-4-(trifluoromethyl)pyrrolidine-3-carboxamide], the IC50 is 173 nM. The value for `C[C@@H]1CN(c2ccc(C#N)c3ncccc23)C[C@H]1C(=O)NC1CCN(C)CC1` (relative stereo) [Example 28] was 52 nM.

Consider `C[C@H]1CN(c2ccc(Cl)c3ncccc23)C[C@@H]1C(=O)NC1CCN(C)CC1` [Example 50, (3R,4R)-1-(8-chloro-5-quinolyl)-4-methyl-N-(1-methyl-4-piperidyl)pyrrolidine-3-carboxamide], for which the midpoint of inhibition, the IC50, lay at 147 nM. To `C[C@H]1CN(c2ccc(C#N)c3nccnc23)C[C@@H]1C(=O)NC1CCN(C)CC1` [Example 3, (3R,4R)-1-(8-cyanoquinoxalin-5-yl)-4-methyl-N-(1-methyl-4-piperidyl)pyrrolidine-3-carboxamide] belongs 5 nM. The value for `O=C(NC1C2CCC1CNC2)C1CN(c2ccc(C(F)(F)F)c3nccnc23)CC12CC2` (stereo not shown) [Example 12, N-(3-azabicyclo[3.2.1]octan-8-yl)-5-[8-(trifluoromethyl)quinoxalin-5-yl]-5-azaspiro[2.4]heptane-7-carboxamide] was 227 nM; that for `N#Cc1ccc(N2CC(C(=O)NCC3CNCCO3)C3(CC3)C2)c2nccnc12` (stereo not shown) [Example 13, 5-(8-Cyanoquinoxalin-5-yl)-N-(morpholin-2-ylmethyl)-5-azaspiro[2.4]heptane-7-carboxamide] was 48 nM. To `N#Cc1ccc(N2C[C@@H](C(F)(F)F)[C@H](C(=O)N[C@H]3CNC[C@H]3F)C2)c2cccnc12` [Example 47, Trans-1-(8-cyano-5-quinolyl)-N-[(3S,4R)-4-fluoropyrrolidin-3-yl]-4-(trifluoromethyl)pyrrolidine-3-carboxamide] belongs 404 nM.

Values taken from US20210323977A1, “PYRROLIDINYL AMIDE COMPOUNDS FOR THE TREATMENT OF AUTOIMMUNE DISEASE” (Hoffmann-La Roche Inc., priority 2018, published 2021).
